Source: ChEMBL document CHEMBL1773070, “Benzophenone-based derivatives: a novel series of potent and selective dual inhibitors of acetylcholinesterase and acetylcholinesterase-induced beta-amyloid aggregation” (Eur J Med Chem, 2011)

Experiments:
Acetylcholinesterase = Acetylcholinesterase (Homo sapiens, UniProt P22303); test: Inhibition of human AChE using acetylthiocholine iodide as substrate by Ellman's assay
Cholinesterase = Cholinesterase (Homo sapiens, UniProt P06276); test: Inhibition of human BChE using butyrylthiocholine iodide as substrate by Ellman's method
Sequence of Cholinesterase (P06276 whole entry): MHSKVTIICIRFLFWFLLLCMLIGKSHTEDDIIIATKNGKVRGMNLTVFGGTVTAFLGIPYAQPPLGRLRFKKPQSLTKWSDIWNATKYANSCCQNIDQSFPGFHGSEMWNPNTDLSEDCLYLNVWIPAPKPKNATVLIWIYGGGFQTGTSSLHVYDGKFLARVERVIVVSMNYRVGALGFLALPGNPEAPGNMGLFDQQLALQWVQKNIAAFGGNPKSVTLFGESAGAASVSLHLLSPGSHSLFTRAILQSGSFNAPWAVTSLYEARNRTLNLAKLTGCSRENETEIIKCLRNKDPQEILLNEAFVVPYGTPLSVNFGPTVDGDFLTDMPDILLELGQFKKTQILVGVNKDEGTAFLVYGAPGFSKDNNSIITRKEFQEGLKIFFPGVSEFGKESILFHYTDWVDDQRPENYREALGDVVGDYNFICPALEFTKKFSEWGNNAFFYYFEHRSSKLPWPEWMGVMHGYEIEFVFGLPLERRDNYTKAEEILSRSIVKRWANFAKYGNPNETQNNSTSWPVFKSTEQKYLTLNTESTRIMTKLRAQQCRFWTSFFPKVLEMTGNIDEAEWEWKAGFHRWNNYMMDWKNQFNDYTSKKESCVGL

Sequence of Acetylcholinesterase (P22303 whole entry): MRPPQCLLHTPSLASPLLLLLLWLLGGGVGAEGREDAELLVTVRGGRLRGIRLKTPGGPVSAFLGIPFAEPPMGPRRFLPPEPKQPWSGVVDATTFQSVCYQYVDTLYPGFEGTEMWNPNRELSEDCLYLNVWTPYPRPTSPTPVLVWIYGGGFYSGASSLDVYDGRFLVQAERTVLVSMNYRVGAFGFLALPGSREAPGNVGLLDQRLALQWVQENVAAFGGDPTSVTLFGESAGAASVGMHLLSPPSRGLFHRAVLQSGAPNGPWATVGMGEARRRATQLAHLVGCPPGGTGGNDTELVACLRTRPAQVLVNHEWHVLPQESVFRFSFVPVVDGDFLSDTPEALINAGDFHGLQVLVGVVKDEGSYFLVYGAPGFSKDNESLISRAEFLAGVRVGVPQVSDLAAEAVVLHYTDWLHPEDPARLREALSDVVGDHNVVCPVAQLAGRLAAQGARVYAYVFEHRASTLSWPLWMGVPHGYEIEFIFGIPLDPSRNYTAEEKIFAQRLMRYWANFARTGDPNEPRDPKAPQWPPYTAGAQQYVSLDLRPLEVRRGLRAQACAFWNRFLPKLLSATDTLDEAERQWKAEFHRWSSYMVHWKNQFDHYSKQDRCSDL

Row | Compound | IC50 (Acetylcholinesterase) [µM] | IC50 (Cholinesterase) [µM]
1 | CCN(CC)CC(=O)Nc1ccc(C(=O)c2ccc(CN(C)Cc3ccccc3)cc2)cc1 | 0.21 | 144
2 | CN(Cc1ccccc1)Cc1ccc(C(=O)c2ccc(NC(=O)CN3CCCCC3)cc2)cc1 | 0.55 | 145
3 | CN(Cc1ccccc1)Cc1ccc(C(=O)c2ccc(NC(=O)CN3CCOCC3)cc2)cc1 | 0.72 | 179
4 | CN(Cc1ccccc1)Cc1ccc(C(=O)c2ccc(NC(=O)CCCCN3CCCCC3)cc2)cc1 | 0.217 | 68
5 | CCN(CC)CCCOc1ccc(C(=O)c2ccc(CN(C)Cc3ccccc3)cc2)cc1 | 0.025 | 35
6 | CN(Cc1ccccc1)Cc1ccc(C(=O)c2ccc(OCCCN3CCCCC3)cc2)cc1 | 0.024 | 11
7 | CN(Cc1ccccc1)Cc1ccc(C(=O)c2ccc(OCCCN3CCOCC3)cc2)cc1 | 0.107 | 21
8 | CN(Cc1ccccc1)Cc1ccc(C(=O)c2ccc(OCCCN3CCC(n4c(=O)[nH]c5ccccc54)CC3)cc2)cc1 | 0.068 | 39
9 | CCN(CC)CCCCCOc1ccc(C(=O)c2ccc(CN(C)Cc3ccccc3)cc2)cc1 | 0.144 | 34
10 | CN(Cc1ccccc1)Cc1ccc(C(=O)c2ccc(OCCCCCN3CCCCC3)cc2)cc1 | 0.143 | 10.4
11 | CCN(CC)CCCCCCOc1ccc(C(=O)c2ccc(CN(C)Cc3ccccc3)cc2)cc1 | 0.257 | 21.9
12 | CN(Cc1ccccc1)Cc1ccc(C(=O)c2ccc(OCCCCCCN3CCCCC3)cc2)cc1 | 0.21 | 9.7
13 | CCN(CC)CCCCCCCOc1ccc(C(=O)c2ccc(CN(C)Cc3ccccc3)cc2)cc1 | 0.81 | 23
14 | CN(Cc1ccccc1)Cc1ccc(C(=O)c2ccc(OCCCCCCCN3CCCCC3)cc2)cc1 | 0.11 | 24.2
15 | CCN(CC)CCc1ccc(Oc2ccc(C(=O)c3ccc(CN(C)Cc4ccccc4)cc3)cc2)cc1 | 0.13 | 209
16 | COc1ccc(C(=O)c2ccc(CN(C)Cc3ccccc3)cc2)cc1 | – | > 10
